Reference: patent US20030180345A1, “Compositions and methods for inhibiting islet dysfunction and autoimmune disorders” (priority 2000, published 2003)

Tests used:
fetal islet cells = test: In vitro fetal islet cell proliferation (BrdU incorporation); type: cell-based, Wistar rats; settings: LP islets; taurine 1.25 or 2.5 mmol/l in culture media
Method: Animals and diets were as described in Example 1. Fetuses were removed at fetal day 21.5, and fetal islet cells were isolated and treated as described in Example 1. Taurine was added to incubation medium at levels of either 0 mmol/l, 1.25 mmol/l or 2.5 mmol/l. Proliferation was evaluated using bromodeoxyuridine (BrdU) incorporation into DNA.

fetal islets = test: Interaction of dietary and in vitro taurine on SNP- or IL1β-induced apoptosis of fetal islets; type: cell-based, Wistar rats
Method: Animals and diets were prepared as described in Example 7. Pancreases were removed and islets were isolated from late gestation fetuses at day 21.5. Neoformed fetal islets obtained after five days of culture from the four diet groups (C, C+Taurine, LP, and LP+Taurine) were compared for their susceptibility to apoptosis following exposure to SNP (100 μmol/l), or IL1β (50 U/ml), with or without in vitro taurine at either physiological (0.3 mmol/l) or supraphysiological (3.0 mmol/l) levels.

## NCCS(=O)(=O)O [taurine, 2-aminoethylsulfonic acid]
Fetal islet cells
  in vitro islet cell proliferation rate (BrdU): increased LP islet cell proliferation rate to the levels observed in C islets having no taurine addition
Fetal islets; co-incubation with taurine in vitro (0.3 or 3.0 mmol/l)
  increased apoptotic response of LP fetal islets to SNP or IL1β: reversed
Fetal islets; dietary taurine in low protein diet combined with high local taurine in vitro
  SNP-induced and IL 1β-induced apoptosis in fetal islets: synergistically decrease
Fetal islets; maternal supplementation with taurine in vivo
  increased apoptotic response of LP fetal islets to SNP or IL1β: reversed
